According to patent US11339130B1 (Blade Therapeutics, Inc., priority 2016, dated 2022):
pIC50: −log10 of the molar value. Where two headings read alike, the source gives them in different places.

Experiments:
Human Calpain 1/NS1 = target: T1, Human Calpain 1/NS1 (Homo sapiens, UniProt P07384); assay: Calpain inhibition continuous fluorescence (FRET) assay, Human Calpain 1/NS1; type: biochemical
T1 sequence (P07384 1-714): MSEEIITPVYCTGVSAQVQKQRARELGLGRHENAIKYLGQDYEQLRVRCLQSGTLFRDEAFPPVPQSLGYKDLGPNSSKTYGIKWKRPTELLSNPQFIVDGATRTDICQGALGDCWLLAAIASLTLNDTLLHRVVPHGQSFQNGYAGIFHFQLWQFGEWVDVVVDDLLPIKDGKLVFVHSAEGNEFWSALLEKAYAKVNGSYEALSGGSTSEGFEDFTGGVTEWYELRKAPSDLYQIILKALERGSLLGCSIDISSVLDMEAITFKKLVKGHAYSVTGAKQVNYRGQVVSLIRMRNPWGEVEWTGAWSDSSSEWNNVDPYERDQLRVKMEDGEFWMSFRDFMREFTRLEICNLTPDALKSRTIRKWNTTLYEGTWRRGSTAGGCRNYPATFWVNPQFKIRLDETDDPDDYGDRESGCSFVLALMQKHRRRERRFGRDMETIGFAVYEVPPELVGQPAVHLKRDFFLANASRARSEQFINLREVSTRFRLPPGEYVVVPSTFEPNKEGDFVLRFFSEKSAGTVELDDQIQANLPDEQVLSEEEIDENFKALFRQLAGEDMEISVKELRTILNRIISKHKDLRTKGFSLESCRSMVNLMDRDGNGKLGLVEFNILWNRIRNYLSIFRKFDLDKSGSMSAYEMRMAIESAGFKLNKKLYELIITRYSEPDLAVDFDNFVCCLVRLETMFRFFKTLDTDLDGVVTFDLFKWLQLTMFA
T1 sequence (P04632 1-268 partner): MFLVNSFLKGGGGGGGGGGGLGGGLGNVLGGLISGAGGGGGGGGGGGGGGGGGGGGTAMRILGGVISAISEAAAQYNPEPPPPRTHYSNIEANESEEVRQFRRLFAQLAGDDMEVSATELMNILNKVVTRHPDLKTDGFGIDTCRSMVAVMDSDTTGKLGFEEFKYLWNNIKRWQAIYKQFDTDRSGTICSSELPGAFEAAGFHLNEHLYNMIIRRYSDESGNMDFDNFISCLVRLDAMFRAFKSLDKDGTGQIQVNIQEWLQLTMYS
In short: (§1)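 Buffer 50 mM Tris pH 7.5/100 mM NaCl/1 mM DTT; enzyme + cpd preinc 25C; start w/ FRET substrate + CaCl2; kinetic 490/520 nm, 10 min; slopes 1-5 min; 4-PL IC50.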

Human Calpain 2/NS1 = target: T2, Human Calpain 2/NS1 (Homo sapiens, UniProt P17655); assay: Calpain inhibition continuous fluorescence (FRET) assay, Human Calpain 2/NS1; type: biochemical
T2 sequence (P17655 1-700): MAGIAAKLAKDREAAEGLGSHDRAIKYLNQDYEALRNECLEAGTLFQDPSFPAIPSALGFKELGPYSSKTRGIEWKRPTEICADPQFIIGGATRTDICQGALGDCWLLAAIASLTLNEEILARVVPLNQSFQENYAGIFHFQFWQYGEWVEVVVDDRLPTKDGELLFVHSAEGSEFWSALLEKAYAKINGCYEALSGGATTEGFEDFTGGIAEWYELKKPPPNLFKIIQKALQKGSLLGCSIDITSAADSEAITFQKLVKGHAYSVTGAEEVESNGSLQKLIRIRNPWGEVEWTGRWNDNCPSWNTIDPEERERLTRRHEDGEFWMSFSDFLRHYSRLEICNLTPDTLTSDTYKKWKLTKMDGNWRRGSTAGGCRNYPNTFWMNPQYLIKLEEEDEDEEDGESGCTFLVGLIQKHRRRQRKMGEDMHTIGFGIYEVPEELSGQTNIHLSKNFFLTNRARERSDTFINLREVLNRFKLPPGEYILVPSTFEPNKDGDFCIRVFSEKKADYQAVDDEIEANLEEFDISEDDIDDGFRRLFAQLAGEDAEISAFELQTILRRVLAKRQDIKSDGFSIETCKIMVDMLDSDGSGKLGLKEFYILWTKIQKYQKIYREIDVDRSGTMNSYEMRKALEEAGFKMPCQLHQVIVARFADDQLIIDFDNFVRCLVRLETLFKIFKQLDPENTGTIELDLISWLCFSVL
T2 sequence (P04632 1-268 partner): T1 sequence (P04632 1-268 partner)
In short: as §1

Human Calpain 9/NS1 = target: T3, Human Calpain 9/NS1 (Homo sapiens, UniProt O14815); assay: Calpain inhibition continuous fluorescence (FRET) assay, Human Calpain 9/NS1; type: biochemical
T3 sequence (O14815 1-690): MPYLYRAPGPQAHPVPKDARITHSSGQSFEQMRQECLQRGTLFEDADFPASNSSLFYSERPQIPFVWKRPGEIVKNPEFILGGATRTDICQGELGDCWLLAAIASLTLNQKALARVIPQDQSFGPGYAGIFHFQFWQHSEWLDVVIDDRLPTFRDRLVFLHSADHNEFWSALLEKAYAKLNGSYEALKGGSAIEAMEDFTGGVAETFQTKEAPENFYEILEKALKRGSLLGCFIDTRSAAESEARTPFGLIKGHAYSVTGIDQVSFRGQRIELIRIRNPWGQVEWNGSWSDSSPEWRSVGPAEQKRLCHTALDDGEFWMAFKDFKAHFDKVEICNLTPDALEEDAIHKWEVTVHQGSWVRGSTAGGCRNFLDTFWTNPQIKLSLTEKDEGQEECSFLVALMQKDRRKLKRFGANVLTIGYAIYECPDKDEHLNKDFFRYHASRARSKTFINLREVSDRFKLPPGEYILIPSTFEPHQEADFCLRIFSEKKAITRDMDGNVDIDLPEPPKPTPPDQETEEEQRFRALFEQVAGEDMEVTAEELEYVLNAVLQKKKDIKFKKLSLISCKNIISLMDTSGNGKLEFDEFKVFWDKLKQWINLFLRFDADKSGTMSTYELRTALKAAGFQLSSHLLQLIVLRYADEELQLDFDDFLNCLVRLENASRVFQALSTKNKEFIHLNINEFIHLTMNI
T3 sequence (P04632 1-268 partner): T1 sequence (P04632 1-268 partner)
In short: as §1

[1] = tested on: Calpain activity in SH-SY5Y cells (SBDP-150); assay: SH-SY5Y Spectrin western blot assay (SBDP-150 breakdown product, A23187-induced); type: cell-based; details: Homo sapiens, read-out: SH-SY5Y Spectrin IC50
[2] = tested on: Calpain activity in SH-SY5Y cells; assay: SH-SY5Y + AMC fluorescence assay (Suc-LLVY-AMC substrate); type: cell-based; details: read-out: SH-SY5Y + AMC IC50
[3] = read-out: Human Calpain 1/NS1 IC50
[4] = read-out: Human Calpain 2/NS1 IC50
[5] = read-out: Human Calpain 9/NS1 IC50
[6] = SH-SY5Y cells, A23187-induced SBDP-150, western blot

Row | Compound | pIC50 (Human Calpain 1/NS1; [3]) | pIC50 (Human Calpain 2/NS1; [4]) | pIC50 (Human Calpain 9/NS1; [5]) | pIC50 [1, 6] | pIC50 [2] | pIC50 (Human Calpain 1/NS1) | pIC50 (Human Calpain 2/NS1) | pIC50 (Human Calpain 9/NS1) | pIC50 ([1]; SH-SY5Y)
1 | Cn1cc(C(=O)N[C@@H](Cc2ccccc2)C(=O)C(=O)NCCC(N)=O)c(-c2ccccc2)n1 [Compound 338, (S)—N-(4-((3-amino-3-oxopropyl)amino)-3,4-dioxo-1-phenylbutan-2-yl)-1-methyl-3-phenyl-1H-pyrazole-4-carboxamide] | > 5.52 | > 5.52 | > 5.52 | < 4.60 | > 5.00 |  |  |  | 
2 | Cn1cc(C(=O)N[C@@H](Cc2ccccc2)C(=O)C(=O)NCC(N)=O)c(-c2ccccc2)n1 [Compound 339, (S)—N-(4-((2-amino-2-oxoethyl)amino)-3,4-dioxo-1-phenylbutan-2-yl)-1-methyl-3-phenyl-1H-pyrazole-4-carboxamide] | > 5.52 | > 5.52 | > 5.52 | < 4.60 | 4.60 to 5.00 |  |  |  | 
3 | Cc1cc(C(=O)N[C@H](C=O)Cc2ccccc2)n(-c2ncccn2)n1 [Compound 341, (S)-3-methyl-N-(1-oxo-3-phenylpropan-2-yl)-1-(pyrimidin-2-yl)-1H-pyrazole-5-carboxamide] | > 5.52 | > 5.52 | 5.00 to 5.52 | < 4.60 | 4.60 to 5.00 |  |  |  | 
4 | NC(=O)C(=O)C(Cc1ccccc1)NC(=O)c1cc(C(F)(F)C(F)(F)F)nn1-c1ccccc1 (stereo not drawn) [Compound 342, N-(4-amino-3,4-dioxo-1-phenylbutan-2-yl)-3-(perfluoroethyl)-1-phenyl-1H-pyrazole-5-carboxamide] | > 5.52 | > 5.52 | > 5.52 | 4.60 to 5.00 | 4.60 to 5.00 |  |  |  | 
5 | Cc1cc(C(=O)N[C@@H](Cc2ccccc2)C(=O)C(N)=O)n(-c2cccc(CNC(=O)Oc3ccccc3)c2)n1 [Compound 344, Phenyl (S)-(3-(5-((4-amino-3,4-dioxo-1-phenylbutan-2-yl)carbamoyl)-3-methyl-1H-pyrazol-1-yl)benzyl)carbamate] |  |  |  |  | 4.60 to 5.00 | > 5.52 | > 5.52 | > 5.52 | < 4.60
6 | NC(=O)C(=O)C(Cc1ccccc1)NC(=O)c1c(Cl)cnn1-c1ncccn1 (stereo not drawn) [Compound 347, N-(4-amino-3,4-dioxo-1-phenylbutan-2-yl)-4-chloro-1-(pyrimidin-2-yl)-1H-pyrazole-5-carb oxamide] | > 5.52 | > 5.52 | > 5.52 | 4.60 to 5.00 | < 4.60 |  |  |  | 
7 | Cc1cc(C(=O)NC(Cc2ccccc2)C(=O)C(N)=O)n(-c2ncccc2F)n1 (stereo not drawn) [Compound 348, N-(4-amino-3,4-dioxo-1-phenylbutan-2-yl)-1-(3-fluoropyridin-2-yl)-3-methyl-1H-pyrazole-5-carboxamide] | > 5.52 | > 5.52 | > 5.52 | < 4.60 | > 5.00 |  |  |  | 
8 | NC(=O)C(=O)C(Cc1ccccc1)NC(=O)c1cc(C(F)(F)F)nn1-c1ncccn1 (stereo not drawn) [Compound 349, N-(4-amino-3,4-dioxo-1-phenylbutan-2-yl)-1-(pyrimidin-2-yl)-3-(trifluoromethyl)-1H-pyrazole-5-carboxamide] | > 5.52 | > 5.52 | > 5.52 | < 4.60 | > 5.00 |  |  |  | 
9 | NC(=O)C(=O)C(Cc1ccccc1)NC(=O)c1cc(Cl)nn1-c1ncccn1 (stereo not drawn) [Compound 350, N-(4-amino-3,4-dioxo-1-phenylbutan-2-yl)-3-chloro-1-(pyrimidin-2-yl)-1H-pyrazole-5-carb oxamide] | > 5.52 | > 5.52 | > 5.52 | 4.60 to 5.00 | > 5.00 |  |  |  | 
10 | Cc1cc(C(=O)NC(Cc2ccccc2)C(=O)C(N)=O)n(-c2ncccn2)n1 (stereo not drawn) [Compound 351, N-(4-amino-3,4-dioxo-1-phenylbutan-2-yl)-3-methyl-1-(pyrimidin-2-yl)-1H-pyrazole-5-carb oxamide] | > 5.52 | > 5.52 | > 5.52 | 4.60 to 5.00 | > 5.00 |  |  |  | 
11 | Cc1cc(C(=O)NC(Cc2ccccc2)C(=O)C(N)=O)n(-c2ccnc(C3CC3)n2)n1 (stereo not drawn) [Compound 352, N-(4-amino-3,4-dioxo-1-phenylbutan-2-yl)-1-(2-cyclopropylpyrimidin-4-yl)-3-methyl-1H-pyrazole-5-carboxamide] | > 5.52 | > 5.52 | > 5.52 | < 4.60 | 4.60 to 5.00 |  |  |  | 
12 | Cc1nc(-c2cccc(F)c2)c(C(=O)N[C@H](C=O)Cc2ccccc2)o1 [Compound 353, (S)-4-(3-fluorophenyl)-2-methyl-N-(1-oxo-3-phenylpropan-2-yl)oxazole-5-carboxamide] | > 5.52 | > 5.52 | > 5.52 | 4.60 to 5.00 | < 4.60 |  |  |  | 
13 | Cc1nc(-c2ccccc2)c(C(=O)N[C@@H](Cc2ccc(O)cc2)C(=O)C(N)=O)o1 [Compound 354] | > 5.52 | > 5.52 | > 5.52 | > 5.00 | > 5.00 |  |  |  | 
14 | Cc1nc(-c2cnc3ccccc3n2)c(C(=O)NC(Cc2ccccc2)C(=O)C(N)=O)o1 (stereo not drawn) [Compound 356, N-(4-amino-3,4-dioxo-1-phenylbutan-2-yl)-2-methyl-4-(quinoxalin-2-yl)oxazole-5-carboxamide] | > 5.52 | > 5.52 | > 5.52 | < 4.60 | < 4.60 |  |  |  | 
15 | NC(=O)C(=O)C(Cc1ccccc1)NC(=O)c1oc(C(F)(F)F)nc1-c1ccccc1F (stereo not drawn) [Compound 358, N-(4-amino-3,4-dioxo-1-phenylbutan-2-yl)-4-(2-fluorophenyl)-2-(trifluoromethyl)oxazole-5-carboxamide] | > 5.52 | > 5.52 | > 5.52 | 4.60 to 5.00 | > 5.00 |  |  |  | 
